Reference: PMC10041525, “New Dual Inhibitors of Bacterial Topoisomerases with Broad-Spectrum Antibacterial Activity and In Vivo Efficacy against Vancomycin-Intermediate Staphylococcus aureus” (Journal of Medicinal Chemistry, 2023)
Values after ≈ are worked out from the molar mass of the structure shown. Values joined by “and” are separate entries in the source; they are usually repeats but may differ in a detail not shown here. Identical values can stand only once. Like-named read-outs stand apart in the source and are kept apart here.

Assays:
[1] = molecular target: T1, human DNA topoisomerase IIα (Homo sapiens, UniProt P11388); test: DNA relaxation assay; format: biochemical
T1 construct: purchased Inspiralis
Description: Seven concentrations of the inhibitors were used to determine IC50 values which were then calculated with GraphPad Prism 6.0 software. Three independent measurements were performed to determine IC50 values, and mean values are reported as the final result.

[2] = system: A. baumannii BM4652 and NMI clinical isolates; test: MIC, wild-type, efflux-defective and MDR clinical isolates; format: cell-based; conditions: Acinetobacter baumannii
HepG2 cell line = test: MTS cytotoxicity assay; format: cell-based, human
Description: (§1) Briefly, Eagle’s minimum essential medium (Gibco, Thermo Fisher Scientific, Waltham, MA, USA) was used to culture the cells. The following supplements were added to the medium: L-glutamine (2 mM; Sigma-Aldrich, St. Louis, MO, USA), penicillin (100 U/mL; Sigma-Aldrich, St. Louis, MO, USA), streptomycin (100 μg/mL; Sigma-Aldrich, St. Louis, MO, USA), and fetal bovine serum (10%; Gibco, Thermo Fisher Scientific, Waltham, MA, USA). The cells were maintained at 37 °C in a humidified 5% CO2 atmosphere. The cells were plated in 96-well plates at a density of 2000 cells per well and incubated for 24 h. Then, the cells were treated with selected compounds, positive control (50 μM etoposide), or vehicle control (0.5% DMSO) and incubated for 72 h. The CellTiter96 Aqueous One Solution Reagent (10 μL; Promega, Madison, WI, USA) was then added to each well, and the plate was incubated for another 3 h. Absorbance at 490 nm was measured with a BioTek Synergy 4 Hybrid Microplate Reader (Winooski, VT, USA). Independent experiments were repeated three times, each performed in triplicate. Statistical significance (p < 0.05) was calculated with two-tailed Student’s t test between treated groups and DMSO. IC50 values (concentration of the compound that gives a half-maximal response) are given as average values from the independent measurements and were determined using GraphPad Prism 5.0 software (San Diego, CA, USA)

MCF-7 cell line = test: MTS cytotoxicity assay; format: cell-based, human
Description: as §1

[3] = molecular target: T2, hERG potassium ion channel (Homo sapiens, UniProt Q12809); test: patch-clamp on transfected CHO cells; format: cell-based
T2 construct: expressed in transfected cells; host or cells: CHO cells (stably transfected)
Description: (§2) hERG and NaV1.5 inhibition was measured with the patch-clamp method on stably transfected CHO cells according to previously described procedures.[34] […] The normalized hERG/NaV1.5 current is reported as mean ± standard error of the mean (SEM, N = 5–6).

[4] = molecular target: T3, sodium Nav1.5 ion channel (Homo sapiens, UniProt Q14524); test: patch-clamp on transfected CHO cells; format: cell-based
T3 construct: expressed in transfected cells; host or cells: CHO cells (stably transfected)
Description: as §2

hemolysis assay = format: cell-based; conditions: human, red blood cells, pH 7.4; read-out: Haemolysis
Description: RBCs were washed three times in Tyrode buffer (130 mM NaCl, 4 mM KCl, 2.8 mM Na acetate, 1 mM MgCl2, 10 mM HEPES, 10 mM glucose, 1 mM CaCl2, adjusted to pH 7.4) and resuspended in the same buffer. Final concentrations in the hemolysis assay were 100 μM compound, 1% DMSO, and 50% RBC, assayed in a 200 μL volume in a microtiter plate. The mixture was incubated at 37 °C for 45 min with shaking (250 rpm). After incubation, RBCs were removed by centrifugation, clear plasma was transferred to a fresh plate, and the amount of hemoglobin was measured using a spectrophotometer at 540 nm. The complete lysis control contained 2% Triton X-100 (in Tyrode buffer) instead of compound; the negative control contained Tyrode buffer but no compound. Percent hemolysis was calculated as: [Abs compound] – [Abs negative control]/[Abs complete lysis control] – [Abs negative control] × 100. Values greater than 1% hemolysis at 100 μM were regarded as a red flag.

[5] = system: S. aureus ATCC 700699 (VISA); format: in vivo, female CD-1 mice; conditions: for Change in log10CFU/gr of thigh from 2 hour control / Change in log10CFU/gr of thigh from 26 hours control / Average log10CFU/gr of thigh: IV; for Average log10CFU/gr of thigh: 26 h
Description: The neutropenic mouse thigh infection model study was performed by NeoSome Life Sciences, LLC (Lexington, MA, USA) according to NeoSome Institutional Animal Care and Use Committee (IACUC) policies and guidelines as well as NIH’s Office of Laboratory Animal Welfare (OLAW) standards.
Neutropenic mouse thigh infection experiments were performed on female CD-1 mice (Charles River Laboratories, USA). To induce neutropenia, mice received two doses of cyclophosphamide on days −4 and −1 with 150 and 100 mg/kg delivered intraperitoneally (IP), respectively. The inoculum of the testing strain, S. aureus ATCC 700699-P1 (VISA), was prepared from overnight agar plate cultures. To prepare bacterial inoculums, a portion of the plate was resuspended in sterile saline and adjusted to an OD of 0.12 at 625 nm. Next, the resulted bacterial suspension was further diluted to reach an infecting inoculum of 6.0 × 10^5 cfu per each mouse. Plate counts of the inoculum were also performed in each case to confirm the inoculum concentration, and the actual inoculum size was 7.25 × 10^5 cfu/mouse. Mice were inoculated with 100 μL of the prepared bacterial suspension via an intramuscular injection into the right rear thigh. […] The test agent was then dosed via IV administration, to ensure optimal distribution, at 2, 10, and 18 h post-infection. Beginning at 2 h, post-infection mice were dosed with either test article or positive control antibiotic. Mice receiving test agents were dosed intravenously at 10 mL/kg. Linezolid was delivered as a SC dose to ensure optimized exposure, distribution, and efficacy. Four animals were dosed per group. One group of four mice was euthanized at the initiation of therapy (t = 2 h) and cfus determined. All remaining mice were euthanized at 26 h post-infection. At termination, thighs were aseptically excised, weighed, and homogenized to a uniform consistency in 2 mL of sterile saline. The homogenate was serially diluted and plated on bacterial growth media. The cfus were enumerated after overnight incubation.

S. aureus DNA gyrase = S. aureus DNA gyrase (Staphylococcus aureus, UniProt P0A0K8); test: gel-based supercoiling assay
Description: In all experiments, the activity of the
enzymes was determined prior to the testing of the compound and 1 unit (U) was defined as the
amount of enzyme required to just fully supercoil or decatenate the substrate. This amount of
enzyme was initially used in determination of control inhibitor activity. These experiments were
performed in duplicate. […] The final DMSO
concentration was 1% for all assays. All measurements were performed in quadruplicates. The
condition for each reaction were as follows:
− S. aureus gyrase supercoiling assay
1 U of S. aureus gyrase was incubated with 0.5 µg of relaxed pBR322 DNA in a 30 µL reaction at
magnesium acetate, 10 mM DTT, 2 mM ATP, 500 mM potassium glutamate and 0.05 mg/mL
− S. aureus topo IV decatenation assay
1 U of S. aureus topo IV was incubated with 20 µg kDNA in a 30 µL reaction at 37 °C for 30
mM ATP, 350 mM potassium glutamate and 0.05 mg/mL albumin.
− A. baumannii gyrase supercoiling assay
1 U of A. baumannii gyrase was incubated with 0.5 µg of relaxed pBR322 DNA in a 30 µL reaction
blue), before being loaded on a 1.0% TAE gel run at 80V for 2 hours. Bands were visualised by
ethidium bromide staining for 20 minutes and destaining for 20 minutes. Gels were scanned using
documentation equipment (GeneGenius, Syngene, Cambridge, UK) and % inhibition levels were
measured by determining the relative fluorescence of the supercoiled band using gel scanning
software. […]

T2 sequence (Q12809 whole entry): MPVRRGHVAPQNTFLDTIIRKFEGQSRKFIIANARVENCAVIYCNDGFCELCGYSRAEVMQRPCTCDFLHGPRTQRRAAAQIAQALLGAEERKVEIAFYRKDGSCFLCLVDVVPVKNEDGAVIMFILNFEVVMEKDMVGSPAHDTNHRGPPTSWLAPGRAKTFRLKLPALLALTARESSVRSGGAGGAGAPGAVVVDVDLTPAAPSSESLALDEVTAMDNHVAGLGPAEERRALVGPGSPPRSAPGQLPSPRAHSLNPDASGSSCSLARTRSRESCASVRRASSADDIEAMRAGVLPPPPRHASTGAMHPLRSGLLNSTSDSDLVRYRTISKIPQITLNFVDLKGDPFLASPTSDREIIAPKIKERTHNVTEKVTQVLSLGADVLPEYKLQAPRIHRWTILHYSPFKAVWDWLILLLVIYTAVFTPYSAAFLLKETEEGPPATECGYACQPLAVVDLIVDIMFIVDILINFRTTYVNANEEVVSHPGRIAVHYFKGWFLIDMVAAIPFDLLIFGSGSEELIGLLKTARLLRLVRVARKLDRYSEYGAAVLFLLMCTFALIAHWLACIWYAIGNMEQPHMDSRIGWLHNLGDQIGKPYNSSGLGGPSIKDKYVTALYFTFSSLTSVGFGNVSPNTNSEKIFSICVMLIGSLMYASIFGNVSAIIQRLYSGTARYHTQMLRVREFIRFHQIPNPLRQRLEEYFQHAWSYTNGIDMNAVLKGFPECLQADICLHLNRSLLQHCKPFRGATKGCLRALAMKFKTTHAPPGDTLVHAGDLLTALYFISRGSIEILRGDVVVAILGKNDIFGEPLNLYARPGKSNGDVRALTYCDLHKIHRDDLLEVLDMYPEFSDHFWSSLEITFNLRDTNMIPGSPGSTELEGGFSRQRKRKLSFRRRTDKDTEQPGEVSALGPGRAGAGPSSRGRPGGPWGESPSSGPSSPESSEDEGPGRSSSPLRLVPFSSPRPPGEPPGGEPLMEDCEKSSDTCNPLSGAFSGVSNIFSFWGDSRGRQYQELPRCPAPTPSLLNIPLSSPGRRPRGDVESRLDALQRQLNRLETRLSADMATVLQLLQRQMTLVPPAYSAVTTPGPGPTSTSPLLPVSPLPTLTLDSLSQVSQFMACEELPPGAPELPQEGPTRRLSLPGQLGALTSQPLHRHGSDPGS
T3 sequence (Q14524 whole entry): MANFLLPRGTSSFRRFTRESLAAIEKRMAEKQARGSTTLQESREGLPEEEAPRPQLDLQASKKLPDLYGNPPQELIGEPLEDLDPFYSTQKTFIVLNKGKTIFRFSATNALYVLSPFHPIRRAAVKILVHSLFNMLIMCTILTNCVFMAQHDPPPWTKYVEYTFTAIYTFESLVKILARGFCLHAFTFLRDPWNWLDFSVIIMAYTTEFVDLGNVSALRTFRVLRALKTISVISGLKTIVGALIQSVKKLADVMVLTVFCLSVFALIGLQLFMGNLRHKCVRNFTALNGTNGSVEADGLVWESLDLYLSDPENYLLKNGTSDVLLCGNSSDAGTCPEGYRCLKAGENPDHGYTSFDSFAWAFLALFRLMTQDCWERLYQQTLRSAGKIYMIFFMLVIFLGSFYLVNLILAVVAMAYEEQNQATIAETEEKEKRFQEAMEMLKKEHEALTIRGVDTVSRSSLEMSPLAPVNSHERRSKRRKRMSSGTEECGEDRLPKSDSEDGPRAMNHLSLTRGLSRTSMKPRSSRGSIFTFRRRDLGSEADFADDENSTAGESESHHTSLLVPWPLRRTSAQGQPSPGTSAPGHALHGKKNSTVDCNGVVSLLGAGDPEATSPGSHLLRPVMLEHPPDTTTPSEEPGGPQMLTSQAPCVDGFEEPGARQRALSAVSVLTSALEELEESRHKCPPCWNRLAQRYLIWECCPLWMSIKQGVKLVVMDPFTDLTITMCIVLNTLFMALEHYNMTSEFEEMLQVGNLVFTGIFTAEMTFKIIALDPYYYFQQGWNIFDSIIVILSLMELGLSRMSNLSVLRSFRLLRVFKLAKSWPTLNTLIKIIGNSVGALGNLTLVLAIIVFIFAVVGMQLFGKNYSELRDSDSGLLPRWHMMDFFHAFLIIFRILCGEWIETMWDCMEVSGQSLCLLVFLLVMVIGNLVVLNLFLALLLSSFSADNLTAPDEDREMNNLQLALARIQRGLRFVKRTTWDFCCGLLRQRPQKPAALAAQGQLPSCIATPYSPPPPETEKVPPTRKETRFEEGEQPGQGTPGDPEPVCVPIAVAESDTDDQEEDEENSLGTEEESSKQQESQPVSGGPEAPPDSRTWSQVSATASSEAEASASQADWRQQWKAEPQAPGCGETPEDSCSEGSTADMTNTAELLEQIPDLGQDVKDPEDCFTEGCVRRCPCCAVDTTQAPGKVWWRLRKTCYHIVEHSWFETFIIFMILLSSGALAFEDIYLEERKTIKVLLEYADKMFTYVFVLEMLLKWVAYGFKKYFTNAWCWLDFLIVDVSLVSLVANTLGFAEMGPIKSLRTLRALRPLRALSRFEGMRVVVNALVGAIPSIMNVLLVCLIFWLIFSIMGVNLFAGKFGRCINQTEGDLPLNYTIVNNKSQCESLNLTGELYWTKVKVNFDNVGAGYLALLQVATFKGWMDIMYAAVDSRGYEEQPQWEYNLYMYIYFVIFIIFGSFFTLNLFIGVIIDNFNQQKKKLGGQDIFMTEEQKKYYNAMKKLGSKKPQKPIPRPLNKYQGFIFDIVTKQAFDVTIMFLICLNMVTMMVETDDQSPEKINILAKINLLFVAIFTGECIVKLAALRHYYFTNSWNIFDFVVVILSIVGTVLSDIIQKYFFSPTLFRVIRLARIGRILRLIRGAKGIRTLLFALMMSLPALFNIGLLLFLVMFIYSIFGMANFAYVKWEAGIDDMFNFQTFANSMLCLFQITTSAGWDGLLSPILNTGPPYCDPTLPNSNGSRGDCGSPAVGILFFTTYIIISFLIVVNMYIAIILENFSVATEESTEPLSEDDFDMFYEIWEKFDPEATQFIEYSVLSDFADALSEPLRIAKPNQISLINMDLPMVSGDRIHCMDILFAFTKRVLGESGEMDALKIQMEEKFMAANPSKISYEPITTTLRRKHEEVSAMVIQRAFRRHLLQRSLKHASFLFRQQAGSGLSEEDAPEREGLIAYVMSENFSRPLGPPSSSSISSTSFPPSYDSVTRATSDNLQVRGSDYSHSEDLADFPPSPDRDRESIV
T1 sequence (P11388 whole entry): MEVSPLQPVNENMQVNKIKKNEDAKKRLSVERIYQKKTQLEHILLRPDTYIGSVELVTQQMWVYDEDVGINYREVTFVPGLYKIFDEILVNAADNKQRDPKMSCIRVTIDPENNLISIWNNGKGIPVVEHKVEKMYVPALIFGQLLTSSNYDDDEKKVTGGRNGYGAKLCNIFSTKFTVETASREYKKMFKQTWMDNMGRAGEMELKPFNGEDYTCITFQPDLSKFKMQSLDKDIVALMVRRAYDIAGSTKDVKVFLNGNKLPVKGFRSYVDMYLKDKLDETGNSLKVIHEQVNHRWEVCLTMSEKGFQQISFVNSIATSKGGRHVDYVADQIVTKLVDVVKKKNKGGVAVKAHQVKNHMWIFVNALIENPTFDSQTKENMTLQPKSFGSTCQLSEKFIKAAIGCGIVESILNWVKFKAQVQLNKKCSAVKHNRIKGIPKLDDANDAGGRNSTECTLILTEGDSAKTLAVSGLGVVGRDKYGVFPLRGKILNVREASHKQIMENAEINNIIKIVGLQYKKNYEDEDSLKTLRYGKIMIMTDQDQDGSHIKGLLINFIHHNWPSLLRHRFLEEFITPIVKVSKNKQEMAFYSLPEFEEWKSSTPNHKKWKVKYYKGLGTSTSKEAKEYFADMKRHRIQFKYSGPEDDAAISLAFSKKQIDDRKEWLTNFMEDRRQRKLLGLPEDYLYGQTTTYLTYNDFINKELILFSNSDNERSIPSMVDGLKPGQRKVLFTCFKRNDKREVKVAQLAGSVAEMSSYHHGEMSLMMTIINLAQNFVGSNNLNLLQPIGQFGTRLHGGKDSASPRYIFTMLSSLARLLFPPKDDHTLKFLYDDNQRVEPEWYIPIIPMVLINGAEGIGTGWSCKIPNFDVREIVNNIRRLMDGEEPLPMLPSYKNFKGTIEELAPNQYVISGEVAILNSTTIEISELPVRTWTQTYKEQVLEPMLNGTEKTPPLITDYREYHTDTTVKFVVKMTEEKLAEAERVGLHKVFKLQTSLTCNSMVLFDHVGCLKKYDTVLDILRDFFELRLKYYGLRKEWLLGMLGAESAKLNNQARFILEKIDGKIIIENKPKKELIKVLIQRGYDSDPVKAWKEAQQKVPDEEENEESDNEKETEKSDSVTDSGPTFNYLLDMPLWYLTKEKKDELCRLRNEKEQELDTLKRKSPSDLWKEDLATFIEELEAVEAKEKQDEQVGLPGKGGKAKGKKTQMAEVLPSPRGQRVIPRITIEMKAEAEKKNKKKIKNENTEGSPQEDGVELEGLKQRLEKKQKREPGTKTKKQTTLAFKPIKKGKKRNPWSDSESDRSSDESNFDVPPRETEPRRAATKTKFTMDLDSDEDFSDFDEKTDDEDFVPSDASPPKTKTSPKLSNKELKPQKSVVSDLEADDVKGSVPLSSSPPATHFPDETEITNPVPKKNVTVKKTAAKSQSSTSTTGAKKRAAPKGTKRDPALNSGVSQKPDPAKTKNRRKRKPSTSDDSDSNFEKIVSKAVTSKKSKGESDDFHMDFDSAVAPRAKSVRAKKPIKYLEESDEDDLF

Work on `Cc1[nH]c(C(=O)Nc2nc3c(N4CCOCC4)cc(C(=O)O)cc3s2)c(Cl)c1Cl` [7a, 2-(3,4-Dichloro-5-methyl-1H-pyrrole-2-carboxamido)-4-morpholinobenzo[d]thiazole-6-carboxylic Acid] yielded an IC50 [1] of 17 µM, an MIC ([2]; A. baumannii BM4652, efflux-defective) of under 0.125 µg/mL and an MIC ([2]; A. baumannii NMI 2692/14, clinical MDR) of 1 µg/mL (≈ 2.2 µM). The MIC ([2]; A. baumannii NMI 2699/14, clinical MDR) was 1 µg/mL (≈ 2.2 µM), the MIC ([2]; A. baumannii NMI 2704/14, clinical MDR) was 1 µg/mL (≈ 2.2 µM) and the “cytotoxic concentration (no cytotoxicity up to)” value (HepG2 cell line; with serum, 72 h) was over 100 µM. The “cytotoxic concentration (no cytotoxicity up to)” value (HepG2 cell line; without fetal bovine serum) was over 100 µM, the “cytotoxic concentration (no cytotoxicity up to)” value (MCF-7 cell line; with serum, 72 h) was over 100 µM and the “cytotoxic concentration (no cytotoxicity up to)” value (MCF-7 cell line; without fetal bovine serum) was over 100 µM. For the same molecule, the “inhibition of hERG” value ([3]; 50 µM) was “no significant inhibition”, the “hERG current fraction (normalized to neg. control)” value ([3]; 50 µM 7a, mean ± SEM) was 1.01 ± 0.02 and the “inhibition of Nav1.5” value ([4]; 10 µM) was “no significant inhibition”. For the same molecule, the “Nav1.5 current fraction (normalized to neg. control)” value ([4]; 10 µM 7a, mean ± SEM) was 0.97 ± 0.03, the hemolysis at 45 min, 100 μM (hemolysis assay) was 0.28 ± 0.01% and the “CFU/ g of thigh, single animals” value ([5]; 10 mg/kg) was 1.82E+08 and 2.23E+08 and 2.51E+08 and 1.42E+08. For the same molecule, the “log CFU, single animals” value ([5]; 10 mg/kg) was 8.26 and 8.35 and 8.40 and 8.15, the “Change in log10CFU/gr of thigh from 2 hour control” value ([5]; 10 mg/kg TID) was 2.00 and the “Change in log10CFU/gr of thigh from 26 hours control” value ([5]; 10 mg/kg TID) was 0.19. For the same molecule, the “Average log10CFU/gr of thigh” value ([5]; 10 mg/kg TID) was 8.29, the “CFU/ g of thigh, single animals” value ([5]; 25 mg/kg) was 4.64E+05 and 4.16E+06 and 1.83E+07 and 9.23E+06 and the “log CFU, single animals” value ([5]; 25 mg/kg) was 5.67 and 6.62 and 7.26 and 6.97. The “reduction compared to 26 h controls” value ([5]; 25 mg/kg IV) was 1.47 log10 cfu, the “Change in log10CFU/gr of thigh from 2 hour control” value ([5]; 25 mg/kg TID) was 0.33 and the “Change in log10CFU/gr of thigh from 26 hours control” value ([5]; 25 mg/kg TID) was -1.47. For the same molecule, the “Average log10CFU/gr of thigh” value ([5]; 25 mg/kg TID) was 6.63, the “CFU/ g of thigh, single animals” value ([5]; 50 mg/kg) was 1.72E+05 and 1.68E+05 and 8.81E+05 and 8.82E+04 and the “log CFU, single animals” value ([5]; 50 mg/kg) was 5.24 and 5.23 and 5.95 and 4.95. For the same molecule, the “reduction compared to 26 h controls” value ([5]; 50 mg/kg IV) was 2.76 log10 cfu, the “reduction compared to 2 hour infection controls” value ([5]; 50 mg/kg IV (TID)) was 0.96 log10 cfu and the “Change in log10CFU/gr of thigh from 2 hour control” value ([5]; 50 mg/kg TID) was -0.96. For the same molecule, the “Change in log10CFU/gr of thigh from 26 hours control” value ([5]; 50 mg/kg TID) was -2.76, the “Average log10CFU/gr of thigh” value ([5]; 50 mg/kg TID) was 5.34 and the IC50 (S. aureus DNA gyrase) was 0.00122 ± 4e-05 µM.
